These results are taken from BindingDB's records for doi:10.1016/j.ejmech.2012.12.014 (Universitat De Barcelona, 2013).

SMILES strings stand for the structures.

For assay [1], the target named is T1, Glycogen synthase kinase-3 beta (Homo sapiens, UniProt P49841). Nature of the assay: (§1) Inhibition of human recombinant GSK-3beta using GS2 peptide as substrate and [gamma33P]-ATP after 30 mins by scintillation counting.
Assay [2] concerns the target T1, Glycogen synthase kinase-3 beta. Described as §1. This is another data set of the same source.
The target in assay [3] is T2, Cyclin-dependent kinase 1 (Homo sapiens, UniProt P06493). Nature of the assay: (§2) Inhibition of human recombinant CDK1 using histone H1 as substrate and [gamma33P]-ATP after 15 mins by scintillation counting.
Assay [4] has as its target T3, Cyclin-dependent kinase 5 (Homo sapiens, UniProt Q00535). Description: (§3) Inhibition of human recombinant CDK5 using histone H1 as substrate and [gamma33P]-ATP after 20 mins by scintillation counting.
Assay [5] has as its target T4, Glycogen synthase kinase-3 alpha (Homo sapiens, UniProt P49840). Description: (§4) Inhibition of human recombinant GSK-3alpha using GS2 peptide as substrate and [gamma33P]-ATP after 12 mins by scintillation counting.
Assay [6] deals with T2, Cyclin-dependent kinase 1. Described as §2. The source holds these as a separate data set.
The target of assay [7] is T3, Cyclin-dependent kinase 5. Described as §3. This is another data set of the same source.
The target of assay [8] is T4, Glycogen synthase kinase-3 alpha. Described as §4. The source holds these as a separate data set.

T1 sequence (P49841 whole entry): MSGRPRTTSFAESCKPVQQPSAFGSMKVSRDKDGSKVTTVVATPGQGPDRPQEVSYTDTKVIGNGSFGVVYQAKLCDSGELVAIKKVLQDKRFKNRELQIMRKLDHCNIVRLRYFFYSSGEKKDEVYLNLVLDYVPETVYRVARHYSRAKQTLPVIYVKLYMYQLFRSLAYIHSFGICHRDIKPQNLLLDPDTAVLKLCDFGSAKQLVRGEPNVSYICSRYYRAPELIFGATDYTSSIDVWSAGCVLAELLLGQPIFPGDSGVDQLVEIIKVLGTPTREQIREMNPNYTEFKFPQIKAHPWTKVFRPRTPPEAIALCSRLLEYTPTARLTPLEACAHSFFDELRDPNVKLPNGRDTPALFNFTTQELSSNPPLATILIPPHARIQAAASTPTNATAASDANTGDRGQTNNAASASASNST
T3 sequence (Q00535 whole entry): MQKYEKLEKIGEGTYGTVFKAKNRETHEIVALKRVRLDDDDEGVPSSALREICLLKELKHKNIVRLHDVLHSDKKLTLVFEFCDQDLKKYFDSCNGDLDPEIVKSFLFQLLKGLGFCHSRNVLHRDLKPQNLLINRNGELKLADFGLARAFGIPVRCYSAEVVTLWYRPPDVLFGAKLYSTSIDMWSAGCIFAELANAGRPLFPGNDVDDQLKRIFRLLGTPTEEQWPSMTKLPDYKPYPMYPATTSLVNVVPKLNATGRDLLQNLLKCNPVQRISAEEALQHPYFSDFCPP
T2 sequence (P06493 whole entry): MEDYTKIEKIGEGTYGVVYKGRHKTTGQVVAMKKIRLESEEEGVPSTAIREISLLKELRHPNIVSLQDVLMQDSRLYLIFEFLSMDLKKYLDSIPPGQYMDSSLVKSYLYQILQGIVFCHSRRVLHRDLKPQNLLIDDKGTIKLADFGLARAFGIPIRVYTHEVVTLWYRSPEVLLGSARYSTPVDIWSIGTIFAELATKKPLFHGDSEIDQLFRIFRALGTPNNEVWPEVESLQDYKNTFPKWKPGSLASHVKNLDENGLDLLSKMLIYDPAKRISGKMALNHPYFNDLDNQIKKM
T4 sequence (P49840 whole entry): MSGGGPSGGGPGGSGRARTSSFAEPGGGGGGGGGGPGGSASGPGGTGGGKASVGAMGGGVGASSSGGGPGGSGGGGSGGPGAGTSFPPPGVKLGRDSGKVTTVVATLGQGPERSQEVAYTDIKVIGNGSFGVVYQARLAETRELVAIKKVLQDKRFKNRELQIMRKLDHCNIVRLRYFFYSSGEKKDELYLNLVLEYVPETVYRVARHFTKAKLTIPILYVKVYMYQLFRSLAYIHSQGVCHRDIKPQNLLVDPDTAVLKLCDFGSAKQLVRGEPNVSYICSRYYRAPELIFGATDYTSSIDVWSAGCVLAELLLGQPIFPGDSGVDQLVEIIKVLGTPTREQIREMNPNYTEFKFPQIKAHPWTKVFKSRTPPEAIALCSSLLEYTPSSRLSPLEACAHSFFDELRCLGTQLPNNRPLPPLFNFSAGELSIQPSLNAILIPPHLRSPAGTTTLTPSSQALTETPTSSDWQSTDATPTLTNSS

What is called IC50 is the midpoint of a concentration-inhibition curve. Turning to `CCCCCCCC(=O)OC[C@H](O)[C@H]1OC(=O)C(O)C1=O` (some centres not stated), the 50% inhibitory concentration (IC50) in assay [1] and in assay [2] was greater than 50 µM in each case.
`C/C(=C\C=C\C(C)CC/C=C(\C)C[C@H]1OC(=O)C(C)C1=O)CCCc1ccoc1` (some centres not stated) [PALINURIN]: the IC50 in assay [3] was less than 100 µM; in assay [4], less than 25.1 µM; in assay [5] it was 1.62 µM; in assay [1], 1.91 µM; in assay [2], 1.91 µM; in assay [6], less than 100 µM. Moreover, the concentration for half-maximal inhibition (IC50) in assay [7] was less than 25.1 µM; in assay [8], 1.62 µM.
With `C/C(=C/CC[C@@H](C)C=C1OC(=O)C(C)C1=O)CCCc1coc(Cc2ccoc2)c1` (some centres not stated) [Ircinin 2], the IC50 in assay [1] and in assay [2] was 2.34 µM throughout.
